Data from patent US12662489B2 (Sitryx Therapeutics Limited, priority 2023, dated 2026).

How the values were obtained:
[1] = molecular target: T1, MTHFD2 recombinant human enzyme (Homo sapiens, UniProt P13995); assay: MTHFD2 inhibition assay (NAD(P)H-Glo luminescence); details: for MTHFD1/MTHFD2 IC50 ratio: selectivity of MTHFD2 inhibition over MTHFD1, band
T1 sequence (P13995 36-350): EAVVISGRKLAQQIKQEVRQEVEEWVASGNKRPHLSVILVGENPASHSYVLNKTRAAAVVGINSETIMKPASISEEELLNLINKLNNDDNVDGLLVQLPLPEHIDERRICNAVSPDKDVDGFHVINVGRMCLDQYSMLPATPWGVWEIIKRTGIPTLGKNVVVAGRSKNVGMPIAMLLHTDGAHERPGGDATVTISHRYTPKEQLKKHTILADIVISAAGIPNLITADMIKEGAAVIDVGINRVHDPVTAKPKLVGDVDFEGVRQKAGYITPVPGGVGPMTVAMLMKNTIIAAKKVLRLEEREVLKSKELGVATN

[2] = molecular target: T2, MTHFD1 recombinant human enzyme (Homo sapiens, UniProt P11586); assay: MTHFD1 inhibition assay (NAD(P)H-Glo luminescence); details: MTHFD1 IC50, recombinant human enzyme 200 nM, NADP, band
T2 sequence (P11586 2-291 limits assumed): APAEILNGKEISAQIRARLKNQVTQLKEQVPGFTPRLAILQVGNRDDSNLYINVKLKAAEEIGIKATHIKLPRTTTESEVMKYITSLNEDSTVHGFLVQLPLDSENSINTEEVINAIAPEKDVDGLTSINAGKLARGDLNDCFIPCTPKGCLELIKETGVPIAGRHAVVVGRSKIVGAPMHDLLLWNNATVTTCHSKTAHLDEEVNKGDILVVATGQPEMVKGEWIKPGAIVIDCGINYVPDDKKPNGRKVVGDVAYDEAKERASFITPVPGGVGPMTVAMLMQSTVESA

Row | IC50 [1] [nM] | MTHFD1/MTHFD2 IC50 ratio [1] | IC50 [2] [nM] | SMILES
1 | 10 to 100 | G (^ 3 to 9.0) | 100 to 1000 | CCOc1cc(C(=O)N2CCc3c(c(=O)oc4c(C)c(N5CCN(C)[C@@H](COC)C5)cc(Cl)c34)C2)c(F)cc1C(=O)NS(=O)(=O)N(C)C1CC1 [Example 298, (R)-4-(10-chloro-8-(3-(methoxymethyl)-4-methylpiperazin-1-yl)-7-methyl-5-oxo-1,3,4,5-tetrahydro-2H-chromeno[3,4-c]pyridine-3-carbonyl)-N-(N-cyclopropyl-N-methylsulfamoyl)-2-ethoxy-5-fluorobenzamide]
2 | 1 to 10 | G (^ 3 to 9.0) | 1 to 10 | COC[C@H]1CN(c2cc(C)c3c4c(c(=O)oc3c2C)CN(C(=O)c2ccc(C(=O)NS(=O)(=O)C3(C)CC3)c(N3CCC3)c2)CC4)CCN1C [Example 91, (R)-2-(azetidin-1-yl)-4-(8-(3-(methoxymethyl)-4-methylpiperazin-1-yl)-7,10-dimethyl-5-oxo-1,3,4,5-tetrahydro-2H-chromeno[3,4-c]pyridine-3-carbonyl)-N-((1-methylcyclopropyl)sulfonyl)benzamide]
3 | 10 to 100 | H (>9.0 to 30) | 100 to 1000 | COC[C@H]1CN(c2cc(Cl)c3c4c(c(=O)oc3c2C)CN(C(=O)c2cc(N(C)C)c(C(=O)NS(=O)(=O)N3CC5(COC5)C3)cc2F)CC4)CCN1C [Example 282, (R)-N-((2-oxa-6-azaspiro[3.3]heptan-6-yl)sulfonyl)-4-(10-chloro-8-(3-(methoxymethyl)-4-methylpiperazin-1-yl)-7-methyl-5-oxo-1,3,4,5-tetrahydro-2H-chromeno[3,4-c]pyridine-3-carbonyl)-2-(dimethylamino)-5-fluorobenzamide]
4 | 1 to 10 | F (<3) | 1 to 10 | COC[C@H]1CN(c2ccc3c4c(c(=O)oc3c2Cl)CN(C(=O)c2ccc(C(=O)NS(=O)(=O)N(C)C)c(O[C@@H]3C[C@@H]5C[C@@H]5C3)c2F)CC4)CCN1C [Example 61, 2-(((1R,3r,5S)-bicyclo[3.1.0]hexan-3-yl)oxy)-4-(7-chloro-8-((R)-3-(methoxymethyl)-4-methylpiperazin-1-yl)-5-oxo-1,3,4,5-tetrahydro-2H-chromeno[3,4-c]pyridine-3-carbonyl)-N-(N,N-dimethylsulfamoyl)-3-fluorobenzamide]
5 | 1 to 10 | F (<3) | 1 to 10 | COC[C@H]1CN(c2ccc3c4c(c(=O)oc3c2C)CN(C(=O)c2ccc(C(=O)NS(=O)(=O)N(C)C(C)C)c(O[C@@H]3C[C@@H]5C[C@@H]5C3)c2F)CC4)CCN1C [Example 64, 2-(((1R,3r,5S)-bicyclo[3.1.0]hexan-3-yl)oxy)-3-fluoro-N-(N-isopropyl-N-methylsulfamoyl)-4-(8-((R)-3-(methoxymethyl)-4-methylpiperazin-1-yl)-7-methyl-5-oxo-1,3,4,5-tetrahydro-2H-chromeno[3,4-c]pyridine-3-carbonyl)benzamide]
6 | 10 to 100 | H (>9.0 to 30) | 100 to 1000 | COC[C@H]1CN(c2cc(C)c3c4c(c(=O)oc3c2C)CN(C(=O)c2cc(N(C)C)c(C(=O)NS(=O)(=O)N3CCC[C@@H]3C(F)(F)F)cc2F)CC4)CCN1C [Example 287, 2-(dimethylamino)-5-fluoro-4-(8-((R)-3-(methoxymethyl)-4-methylpiperazin-1-yl)-7,10-dimethyl-5-oxo-1,3,4,5-tetrahydro-2H-chromeno[3,4-c]pyridine-3-carbonyl)-N-(((R)-2-(trifluoromethyl)pyrrolidin-1-yl)sulfonyl)benzamide]
7 | 10 to 100 | H (>9.0 to 30) | 100 to 1000 | CCOc1cc(C(=O)N2CCc3c(c(=O)oc4c(C)c(N5CCN(C)[C@@H](COC)C5)cc(Cl)c34)C2)c(F)cc1C(=O)NS(=O)(=O)C1(C)CC1 [Example 299, (R)-4-(10-chloro-8-(3-(methoxymethyl)-4-methylpiperazin-1-yl)-7-methyl-5-oxo-1,3,4,5-tetrahydro-2H-chromeno[3,4-c]pyridine-3-carbonyl)-2-ethoxy-5-fluoro-N-((1-methylcyclopropyl)sulfonyl)benzamide]
8 | 10 to 100 | F (<3) | 1 to 10 | COC[C@H]1CN(c2ccc3c4c(c(=O)oc3c2Cl)CN(C(=O)c2ccc(C(=O)NS(=O)(=O)N3CCCC3)c(OC3CCCC3)c2F)CC4)CCN1C [Example 6, (R)-4-(7-chloro-8-(3-(methoxymethyl)-4-methylpiperazin-1-yl)-5-oxo-1,3,4,5-tetrahydro-2H-chromeno[3,4-c]pyridine-3-carbonyl)-2-(cyclopentyloxy)-3-fluoro-N-(pyrrolidin-1-ylsulfonyl)benzamide]
9 | 10 to 100 | F (<3) | 10 to 100 | CCOc1c(C(=O)NS(=O)(=O)N2CC3CC3C2)ccc(C(=O)N2CCc3c(c(=O)oc4c(CC)c(N5CCN(C)[C@@H](COC)C5)ccc34)C2)c1F (stereo partly drawn) [Example 214, N-((3-azabicyclo[3.1.0]hexan-3-yl)sulfonyl)-2-ethoxy-4-(7-ethyl-8-((R)-3-(methoxymethyl)-4-methylpiperazin-1-yl)-5-oxo-1,3,4,5-tetrahydro-2H-chromeno[3,4-c]pyridine-3-carbonyl)-3-fluorobenzamide]
10 | 10 to 100 | H (>9.0 to 30) | 100 to 1000 | COC[C@H]1CN(c2cc(C)c3c4c(c(=O)oc3c2C)CN(C(=O)c2ccc(C(=O)NS(=O)(=O)N3CCCCC3)c(OC)c2F)CC4)CCN1C [Example 239]

Row | SMILES | IC50 [1] [nM] | MTHFD1/MTHFD2 IC50 ratio [1] | IC50 [2] [nM]
11 | COC[C@H]1CN(c2ccc3c4c(c(=O)oc3c2C)CN(C(=O)c2c(C)cc(C(=O)NS(=O)(=O)N3CCCC3)c(OC3CCC3)c2F)CC4)CCN1C [Example 140, (R)-2-cyclobutoxy-3-fluoro-4-(8-(3-(methoxymethyl)-4-methylpiperazin-1-yl)-7-methyl-5-oxo-1,3,4,5-tetrahydro-2H-chromeno[3,4-c]pyridine-3-carbonyl)-5-methyl-N-(pyrrolidin-1-ylsulfonyl) benzamide] | 100 to 1000 | F (<3) | 100 to 1000
12 | COC[C@H]1CN(c2ccc3c4c(c(=O)oc3c2C)CN(C(=O)c2ccc(C(=O)NS(=O)(=O)N3[C@H](C)CC[C@H]3C)c(OC3CCC3)c2F)CC4)CCN1C [Example 177, 2-cyclobutoxy-N-(((2R,5R)-2,5-dimethylpyrrolidin-1-yl)sulfonyl)-3-fluoro-4-(8-((R)-3-(methoxymethyl)-4-methylpiperazin-1-yl)-7-methyl-5-oxo-1,3,4,5-tetrahydro-2H-chromeno[3,4-c]pyridine-3-carbonyl)benzamide] | 100 to 1000 | F (<3) | 100 to 1000
13 | COC[C@H]1CN(c2cc(C)c3c4c(c(=O)oc3c2C)CN(C(=O)c2ccc(C(=O)NS(=O)(=O)N3C5CCC3COC5)c(OC)c2F)CC4)CCN1C [Example 158, N-((3-oxa-8-azabicyclo[3.2.1]octan-8-yl)sulfonyl)-3-fluoro-2-methoxy-4-(8-((R)-3-(methoxymethyl)-4-methylpiperazin-1-yl)-7,10-dimethyl-5-oxo-1,3,4,5-tetrahydro-2H-chromeno[3,4-c]pyridine-3-carbonyl)benzamide] | 10 to 100 | H (>9.0 to 30) | 100 to 1000
14 | CCOC[C@H]1CN(c2ccc3c4c(c(=O)oc3c2C)CN(C(=O)c2ccc(C(=O)NS(=O)(=O)N3CCCC3)c(OC3CCC3)c2F)CC4)CCN1C [Example 143, (R)-2-cyclobutoxy-4-(8-(3-(ethoxymethyl)-4-methylpiperazin-1-yl)-7-methyl-5-oxo-1,3,4,5-tetrahydro-2H-chromeno[3,4-c]pyridine-3-carbonyl)-3-fluoro-N-(pyrrolidin-1-ylsulfonyl)benzamide] | 10 to 100 | G (^ 3 to 9.0) | 100 to 1000
15 | COC[C@H]1CN(c2cc(C)c3c4c(c(=O)oc3c2C)CN(C(=O)c2ccc(C(=O)NS(=O)(=O)C3(C)CC3)c(OC3CCC3)c2C)CC4)CCN1C [Example 180, (R)-2-cyclobutoxy-4-(8-(3-(methoxymethyl)-4-methylpiperazin-1-yl)-7,10-dimethyl-5-oxo-1,3,4,5-tetrahydro-2H-chromeno[3,4-c]pyridine-3-carbonyl)-3-methyl-N-((1-methylcyclopropyl)sulfonyl)benzamide] | 10 to 100 | G (^ 3 to 9.0) | 100 to 1000
16 | Cc1c(N2CCN(C)[C@@H](COC(C)C)C2)ccc2c3c(c(=O)oc12)CN(C(=O)c1ccc(C(=O)NS(=O)(=O)N2CCCC2)c(OC2CCC2)c1F)CC3 [Example 192, (R)-2-cyclobutoxy-3-fluoro-4-(8-(3-(isopropoxymethyl)-4-methylpiperazin-1-yl)-7-methyl-5-oxo-1,3,4,5-tetrahydro-2H-chromeno[3,4-c]pyridine-3-carbonyl)-N-(pyrrolidin-1-ylsulfonyl)benzamide] | 100 to 1000 | F (<3) | 100 to 1000
